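Following 48 hours of exposure in 96-well plates, responses at five concentrations were used to interpolate endpoints linearly. GI50 marks 50% less growth.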 Activity calls are given as the source filed them. Rule as the data show it: active = GI50 up to about 1.1 µM and inactive = higher.
How the values were obtained:
Test in all cases: inhibition of tumour cell growth, NCI panel, 48 h
786-0 = tested on: 786-0
A549 = tested on: A549
HL-60 = tested on: HL-60
HT-29 = tested on: HT-29
K562 = tested on: K562
KM12 = tested on: KM12
LOX IMVI = tested on: LOX IMVI
MDA-N = tested on: MDA-N
NCI-H226 = tested on: NCI-H226
NCI-H460 = tested on: NCI-H460
PC-3 = tested on: PC-3
RPMI-8226 = tested on: RPMI-8226
SF-295 = tested on: SF-295
SK-MEL-5 = tested on: SK-MEL-5
SK-OV-3 = tested on: SK-OV-3
SN12C = tested on: SN12C
SW-620 = tested on: SW-620
UACC-257 = tested on: UACC-257
UACC-62 = tested on: UACC-62
UO-31 = tested on: UO-31

| Compound | GI50 (786-0) | GI50 (A549) | GI50 (HL-60) | GI50 (HT-29) | GI50 (K562) | GI50 (KM12) | GI50 (LOX IMVI) | GI50 (MDA-N) | GI50 (NCI-H226) | GI50 (NCI-H460) | GI50 (PC-3) | GI50 (RPMI-8226) | GI50 (SF-295) | GI50 (SK-MEL-5) | GI50 (SK-OV-3) | GI50 (SN12C) | GI50 (SW-620) | GI50 (UACC-257) | GI50 (UACC-62) | GI50 (UO-31) |
| --- | --- | --- | --- | --- | --- | --- | --- | --- | --- | --- | --- | --- | --- | --- | --- | --- | --- | --- | --- | --- |
| O=C(O)CCC(=O)Nc1ccc2ccccc2c1 | > 100 µM (inactive) | > 100 µM (inactive) | > 100 µM (inactive) | > 100 µM (inactive) | > 100 µM (inactive) | > 100 µM (inactive) | > 100 µM (inactive) | > 100 µM (inactive) | > 100 µM (inactive) | > 100 µM (inactive) | > 100 µM (inactive) | > 100 µM (inactive) | > 100 µM (inactive) | > 100 µM (inactive) | > 100 µM (inactive) | > 100 µM (inactive) | > 100 µM (inactive) | > 100 µM (inactive) | > 100 µM (inactive) | > 100 µM (inactive) |
| COc1ccc(NC(=S)c2ccoc2C)cc1CC(=O)OC(C)C | > 100 µM (inactive) | 26.4 µM (inactive) | 22.1 µM (inactive) | 16.7 µM (inactive) | 34.8 µM (inactive) | 29.7 µM (inactive) | 18.8 µM (inactive) | 31 µM (inactive) | 12.4 µM (inactive) | 31.8 µM (inactive) | 21.9 µM (inactive) | 50.8 µM (inactive) | 38.1 µM (inactive) | 34.1 µM (inactive) | 54 µM (inactive) | 66.1 µM (inactive) | 36.1 µM (inactive) | 33.4 µM (inactive) | 26 µM (inactive) | 30.6 µM (inactive) |
| COC(=O)c1c(C(=O)OC)c2ccccn2c1-c1cc(C)cc2c1C(=O)C=CC2=O | 5.48 µM (inactive) | 16.3 µM (inactive) | 2.24 µM (inactive) | 11.2 µM (inactive) | 2.67 µM (inactive) | > 10 µM (inactive) | > 10 µM (inactive) | 10.5 µM (inactive) | 13.8 µM (inactive) | > 10 µM (inactive) | 14 µM (inactive) | 4.11 µM (inactive) | 12.2 µM (inactive) | 12.4 µM (inactive) | > 10 µM (inactive) | 12.7 µM (inactive) | 2.89 µM (inactive) | 3.43 µM (inactive) | 11.7 µM (inactive) | 2.38 µM (inactive) |
| COc1cc(OC)c(/C=C/c2cnc3ccccc3n2)c(OC)c1 | > 10 µM (inactive) | > 10 µM (inactive) | > 10 µM (inactive) | > 10 µM (inactive) | > 10 µM (inactive) | > 10 µM (inactive) | > 10 µM (inactive) | > 10 µM (inactive) | > 10 µM (inactive) | > 10 µM (inactive) | > 10 µM (inactive) | > 10 µM (inactive) | > 10 µM (inactive) | > 10 µM (inactive) | > 10 µM (inactive) | > 10 µM (inactive) | > 10 µM (inactive) | > 10 µM (inactive) | > 10 µM (inactive) | 0.0561 µM (active) |
| Brc1ccc2[nH]cc(-c3nc(-c4c[nH]c5ccccc45)cs3)c2c1 | 2.86 µM (inactive) | 3.24 µM (inactive) | 3.37 µM (inactive) | 1.85 µM (inactive) | 2.95 µM (inactive) | 2.09 µM (inactive) | 1.93 µM (inactive) | 2.91 µM (inactive) | 2.59 µM (inactive) | 2.06 µM (inactive) | 3.11 µM (inactive) | 3.18 µM (inactive) | 2.84 µM (inactive) | 1.6 µM (inactive) | 8.13 µM (inactive) | 3.49 µM (inactive) | 3.16 µM (inactive) | 3.97 µM (inactive) | 2.37 µM (inactive) | 2.97 µM (inactive) |
| CCOP(=O)(OCC)C(c1ccc(F)cc1)N(C(=O)NC(F)(F)F)c1cccc(C(F)(F)F)c1 (stereo not given) | > 10 µM (inactive) | 82.2 µM (inactive) | 43.9 µM (inactive) | 86.9 µM (inactive) | 50.2 µM (inactive) | > 100 µM (inactive) | > 100 µM (inactive) | > 100 µM (inactive) | > 100 µM (inactive) | 91.4 µM (inactive) | > 100 µM (inactive) | 63 µM (inactive) | > 100 µM (inactive) | > 100 µM (inactive) | > 100 µM (inactive) | > 100 µM (inactive) | > 100 µM (inactive) | > 100 µM (inactive) | 72.8 µM (inactive) | 94.8 µM (inactive) |
| COc1cc(C2C3=C(COC3=O)Oc3cc4c(cc32)OCO4)ccc1OC(C)=O (stereo not given) | 0.521 µM (active) | 0.957 µM (active) | 0.188 µM (active) | 0.346 µM (active) | 0.13 µM (active) | 0.255 µM (active) | 0.708 µM (active) | 0.0467 µM (active) | 5.14 µM (inactive) | 0.45 µM (active) | 0.186 µM (active) | 0.34 µM (active) | 0.127 µM (active) | 0.106 µM (active) | 0.334 µM (active) | 2.19 µM (inactive) | 0.284 µM (active) | > 100 µM (inactive) | 0.54 µM (active) | 0.352 µM (active) |
| O=C(O)CCN1CCN(CCC(=O)O)CCN(CCC(=O)O)CC1 | 79.6 µM (inactive) | 69.3 µM (inactive) | 25.5 µM (inactive) | 53.6 µM (inactive) | 36.3 µM (inactive) | 69.7 µM (inactive) | 82.8 µM (inactive) | > 100 µM (inactive) | > 100 µM (inactive) | 56.2 µM (inactive) | > 100 µM (inactive) | 83.4 µM (inactive) | > 100 µM (inactive) | 74 µM (inactive) | > 100 µM (inactive) | > 100 µM (inactive) | 44.4 µM (inactive) | > 100 µM (inactive) | > 100 µM (inactive) | > 100 µM (inactive) |
| ClCCN1CCO/C1=N/c1ccc2c(c1)CCCC2 | 16.2 µM (inactive) | 13.8 µM (inactive) | 4.25 µM (inactive) | 14.4 µM (inactive) | 6.7 µM (inactive) | 17.9 µM (inactive) | 13.4 µM (inactive) | 10.8 µM (inactive) | 13.5 µM (inactive) | 18.8 µM (inactive) | 4.44 µM (inactive) | 4.76 µM (inactive) | 12.1 µM (inactive) | 1.96 µM (inactive) | 20.7 µM (inactive) | 12.6 µM (inactive) | 22.3 µM (inactive) | 3.82 µM (inactive) | 11.3 µM (inactive) | 14 µM (inactive) |
| O=c1c2sc(=S)n(-c3ccc(F)cc3)c2ncn1/N=C/c1ccc(F)cc1F | 17.2 µM (inactive) | 46 µM (inactive) | 22.8 µM (inactive) | > 100 µM (inactive) | > 100 µM (inactive) | 79.8 µM (inactive) | 43.6 µM (inactive) | > 100 µM (inactive) | 24.4 µM (inactive) | 39.2 µM (inactive) | 31.6 µM (inactive) | 52.2 µM (inactive) | 21.1 µM (inactive) | 58.1 µM (inactive) | 25.4 µM (inactive) | 31.3 µM (inactive) | > 100 µM (inactive) | 34.9 µM (inactive) | 27.7 µM (inactive) | 24.9 µM (inactive) |
| C1C2CC3CC1CC(Nc1nc(NC45CC6CC(CC(C6)C4)C5)nc(NC45CC6CC(CC(C6)C4)C5)n1)(C2)C3 | > 20.8 µM (inactive) | > 53 µM (inactive) | 39.3 µM (inactive) | > 100 µM (inactive) | > 62.5 µM (inactive) | 22.1 µM (inactive) | 11.1 µM (inactive) | 74.3 µM (inactive) | > 100 µM (inactive) | 66.4 µM (inactive) | > 67.3 µM (inactive) | 24.5 µM (inactive) | > 56.1 µM (inactive) | 14.3 µM (inactive) | > 100 µM (inactive) | > 100 µM (inactive) | 79.4 µM (inactive) | > 28.8 µM (inactive) | > 44.7 µM (inactive) | > 38.3 µM (inactive) |
| COC(=O)[C@H](Cc1c[nH]c2ccccc12)NP(=O)(O)OC[C@H]1O[C@@H](n2cc(C)c(=O)[nH]c2=O)C[C@@H]1N=[N+]=[N-] | > 100 µM (inactive) | > 100 µM (inactive) | > 100 µM (inactive) | > 100 µM (inactive) | > 100 µM (inactive) | > 100 µM (inactive) | > 100 µM (inactive) | > 100 µM (inactive) | > 100 µM (inactive) | > 100 µM (inactive) | > 100 µM (inactive) | > 100 µM (inactive) | > 100 µM (inactive) | > 100 µM (inactive) | > 100 µM (inactive) | > 100 µM (inactive) | > 100 µM (inactive) | > 100 µM (inactive) | > 100 µM (inactive) | > 100 µM (inactive) |
| CC1=NN(C(=O)c2ccccc2O)C(=O)/C1=C/c1ccco1 | 1.64 µM (inactive) | 7.19 µM (inactive) | 1.49 µM (inactive) | 12.4 µM (inactive) | 2.64 µM (inactive) | 7.01 µM (inactive) | 2.67 µM (inactive) | 0.53 µM (active) | 3.46 µM (inactive) | 1.59 µM (inactive) | 3.04 µM (inactive) | 5.57 µM (inactive) | 3.58 µM (inactive) | 1.36 µM (inactive) | 5.7 µM (inactive) | 2.96 µM (inactive) | 3.3 µM (inactive) | 8.73 µM (inactive) | 0.436 µM (active) | 0.404 µM (active) |
| O=C1Nc2ccccc2/C1=N/Nc1ccccc1[N+](=O)[O-] | 14.5 µM (inactive) | 34.4 µM (inactive) | > 100 µM (inactive) | > 100 µM (inactive) | 66.5 µM (inactive) | 33.8 µM (inactive) | 36.4 µM (inactive) | > 100 µM (inactive) | 1.67 µM (inactive) | 19.9 µM (inactive) | 57 µM (inactive) | 80.7 µM (inactive) | 56.9 µM (inactive) | 40.9 µM (inactive) | 17.1 µM (inactive) | 40.7 µM (inactive) | 32.1 µM (inactive) | 56.1 µM (inactive) | 63.8 µM (inactive) | 24.3 µM (inactive) |

From ChEMBL document CHEMBL1201862, “PubChem BioAssay data set” (2004)
